# Test results from patent US12257287B2, “Glucagon-derived peptide and use thereof” (Tianjin Institute of Pharmaceutical Research Co., Ltd., priority 2018, dated 2025).
# Numbered stars: 1 amine (or outer) side, 2 acyl side, 3 side chain; on linkers, the order of the positions; unused ones are H or OH. Square brackets hold non-standard residues; d marks the D form. Side chains are listed from the residue outwards. Peptide text beside a SMILES is read from it. * marks the point of attachment. C18 diacid = O=C(O)CCCCCCCCCCCCCCCCC(=O)*; γGlu = O=C(O)[C@H](CCC(=O)[*:2])N[*:1]; AEEA = NCCOCCOCC(=O)O; Aib = CC(C)(N)C(=O)O
# What was measured:
# GC receptor = target: T1, GC receptor (Homo sapiens, UniProt P47871); assay: GC receptor mediated cAMP production in vitro (HEK293 cells transfected with GC receptor); format: cell-based; conditions: 20 min at 37° C., read-out: GCGR (nM EC50)
# T1 construct: expressed in transfected cells; host or cells: HEK293 cells
# T1 sequence (P47871 26-477): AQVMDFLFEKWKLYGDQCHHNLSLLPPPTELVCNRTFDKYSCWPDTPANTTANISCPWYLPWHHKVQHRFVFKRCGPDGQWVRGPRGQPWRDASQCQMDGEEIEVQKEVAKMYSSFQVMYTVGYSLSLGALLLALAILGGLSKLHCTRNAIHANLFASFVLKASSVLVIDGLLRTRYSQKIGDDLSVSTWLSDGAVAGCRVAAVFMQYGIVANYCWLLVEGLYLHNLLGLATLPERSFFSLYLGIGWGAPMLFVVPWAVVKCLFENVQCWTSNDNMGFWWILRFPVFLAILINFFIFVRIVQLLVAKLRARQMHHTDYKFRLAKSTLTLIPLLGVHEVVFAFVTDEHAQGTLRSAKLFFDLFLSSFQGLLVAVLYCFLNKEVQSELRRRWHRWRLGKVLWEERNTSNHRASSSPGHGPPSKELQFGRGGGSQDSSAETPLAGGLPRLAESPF
# Text: The medium was removed, the cells were lysed, and cAMP values were detected referring to the detection method described for the assay kit.
# physchem = format: physicochemical
# [1] = pH 7.5, Solubility, pH 7.5, 10 mM phosphate buffer
# [2] = pH 7.5, Solubility, pH 7.5, 20 mM phosphate buffer
# [3] = pH 8, Solubility, pH 8.0, 10 mM phosphate buffer
# [4] = pH 8, Solubility, pH 8.0, 20 mM phosphate buffer
# 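For Solubility in this document: compound added at 2 mg per mL of phosphate buffer, with the dissolved amount determined in the supernatant.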
# 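For Solubility, pH 7.5, 20 mM phosphate buffer in this document: compound added at 2 mg per mL of phosphate buffer, with the dissolved amount determined in the supernatant.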
Compound,EC50 (GC receptor),solubility (physchem; [1]),solubility (physchem; [2]),solubility (physchem; [3]),solubility (physchem; [4]),"Solubility, pH 7.5, 20 mM phosphate buffer (physchem; pH 7.5)"
CC(C)C[C@H](NC(=O)[C@H](Cc1c[nH]c2ccccc12)NC(=O)[C@H](CCC(=O)O)NC(=O)[C@@H](NC(=O)[C@H](Cc1ccccc1)NC(=O)[C@H](CCC(=O)O)NC(=O)[C@H](CCCCNC(=O)COCCOCCNC(=O)COCCOCCNC(=O)CC[C@H](NC(=O)CCCCCCCCCCCCCCCCC(=O)O)C(=O)O)NC(=O)[C@H](C)NC(=O)[C@H](CCCCN)NC(=O)[C@H](CCCNC(=N)N)NC(=O)[C@H](CCC(=O)O)NC(=O)[C@H](CC(=O)O)NC(=O)[C@H](CC(C)C)NC(=O)[C@H](Cc1ccc(O)cc1)NC(=O)[C@H](CCCCN)NC(=O)[C@H](CO)NC(=O)[C@H](Cc1ccc(O)cc1)NC(=O)[C@H](CC(=O)O)NC(=O)[C@H](CO)NC(=O)[C@@H](NC(=O)[C@H](Cc1ccccc1)NC(=O)[C@@H](NC(=O)CNC(=O)[C@H](CCC(N)=O)NC(=O)C(C)(C)NC(=O)[C@@H](N)Cc1c[nH]cn1)[C@@H](C)O)[C@@H](C)O)C(C)C)C(=O)N[C@@H](CCC(=O)O)C(=O)N[C@@H](C)C(=O)NCC(=O)NCC(=O)N1CCC[C@H]1C(=O)N[C@@H](CO)C(=O)N[C@@H](CO)C(=O)NCC(N)=O [Compound 42] (H-H[Aib]QGTFTSDYSKYLDERKAK([AEEA-AEEA-γGlu-C18 diacid])EFVEWLEAGGPSSG-NH2; N-terminus assumed),0.024 nM,1.72 mg/mL,1.51 mg/mL,> 2 mg/mL,> 2 mg/mL,–
"CCCCCCCCCCCCCCCC(=O)N[C@@H](CCC(=O)N[C@@H](CCC(=O)NCCCC[C@H](NC(=O)[C@H](C)NC(=O)[C@H](CCCNC(=N)N)NC(=O)[C@H](CCCCN)NC(=O)[C@H](CCC(=O)O)NC(=O)[C@H](CCC(=O)O)NC(=O)[C@H](CC(C)C)NC(=O)[C@H](Cc1ccc(O)cc1)NC(=O)[C@H](CCCCN)NC(=O)[C@H](CO)NC(=O)[C@H](Cc1ccc(O)cc1)NC(=O)[C@H](CC(=O)O)NC(=O)[C@H](CO)NC(=O)[C@@H](NC(=O)[C@H](Cc1ccccc1)NC(=O)[C@@H](NC(=O)CNC(=O)[C@H](CCC(N)=O)NC(=O)C(C)(C)NC(=O)[C@@H](N)Cc1c[nH]cn1)[C@@H](C)O)[C@@H](C)O)C(=O)N[C@@H](CCC(=O)O)C(=O)N[C@@H](Cc1ccccc1)C(=O)N[C@H](C(=O)N[C@@H](CCC(=O)O)C(=O)N[C@@H](Cc1c[nH]c2ccccc12)C(=O)N[C@@H](CC(C)C)C(=O)N[C@@H](CC(C)C)C(=O)N[C@@H](CCC(=O)O)C(=O)N[C@@H](C)C(=O)NCC(=O)NCC(=O)N1CCC[C@H]1C(=O)N[C@@H](CO)C(=O)N[C@@H](CO)C(=O)NCC(N)=O)C(C)C)C(=O)O)C(=O)O [Compound 26] (HELM PEPTIDE1{H.[Aib].Q.G.T.F.T.S.D.Y.S.K.Y.L.E.E.K.R.A.K.E.F.V.E.W.L.L.E.A.G.G.P.S.S.G.[am]}|PEPTIDE2{[CCCCCCCCCCCCCCCC(=O)[*:2]].[gGlu].[gGlu]}$PEPTIDE1,PEPTIDE2,20:R3-3:R2$$$V2.0; N-terminus assumed)",0.197 nM,0.08 mg/mL,–,0.2 mg/mL,0.1 mg/mL,Insoluble
"CCCCCCCCCCCCCCCC(=O)N[C@@H](CCC(=O)N[C@@H](CCC(=O)NCCCC[C@H](NC(=O)[C@H](CC(=O)O)NC(=O)[C@H](CO)NC(=O)[C@@H](NC(=O)[C@H](Cc1ccccc1)NC(=O)[C@@H](NC(=O)CNC(=O)[C@H](CCC(N)=O)NC(=O)C(C)(C)NC(=O)[C@@H](N)Cc1c[nH]cn1)[C@@H](C)O)[C@@H](C)O)C(=O)N[C@@H](CO)C(=O)N[C@@H](CCCCN)C(=O)N[C@@H](Cc1ccc(O)cc1)C(=O)N[C@@H](CC(C)C)C(=O)N[C@@H](CCC(=O)O)C(=O)N[C@@H](CCC(=O)O)C(=O)N[C@@H](CCCNC(=N)N)C(=O)N[C@@H](C)C(=O)N[C@@H](C)C(=O)N[C@@H](CCCCN)C(=O)N[C@@H](CCC(=O)O)C(=O)N[C@@H](Cc1ccccc1)C(=O)N[C@H](C(=O)N[C@@H](C)C(=O)N[C@@H](Cc1c[nH]c2ccccc12)C(=O)N[C@@H](CC(C)C)C(=O)N[C@@H](CC(C)C)C(=O)N[C@@H](CCC(=O)O)C(=O)NCC(=O)NCC(=O)N1CCC[C@H]1C(=O)N[C@@H](CO)C(=O)N[C@@H](CO)C(=O)NCC(N)=O)[C@@H](C)CC)C(=O)O)C(=O)O [Compound 16] (HELM PEPTIDE1{H.[Aib].Q.G.T.F.T.S.D.K.S.K.Y.L.E.E.R.A.A.K.E.F.I.A.W.L.L.E.G.G.P.S.S.G.[am]}|PEPTIDE2{[CCCCCCCCCCCCCCCC(=O)[*:2]].[gGlu].[gGlu]}$PEPTIDE1,PEPTIDE2,10:R3-3:R2$$$V2.0; N-terminus assumed)",0.092 nM,0.14 mg/mL,0.05 mg/mL,0.16 mg/mL,0.2 mg/mL,–
"CCCCCCCCCCCCCCCC(=O)N[C@@H](CCC(=O)N[C@@H](CCC(=O)NCCCC[C@H](NC(=O)[C@H](C)NC(=O)[C@H](CCCNC(=N)N)NC(=O)[C@H](CCCCN)NC(=O)[C@H](CCC(=O)O)NC(=O)[C@H](CCC(=O)O)NC(=O)[C@H](CC(C)C)NC(=O)[C@H](Cc1ccc(O)cc1)NC(=O)[C@H](CCCCN)NC(=O)[C@H](CO)NC(=O)[C@H](Cc1ccc(O)cc1)NC(=O)[C@H](CC(=O)O)NC(=O)[C@H](CO)NC(=O)[C@@H](NC(=O)[C@H](Cc1ccccc1)NC(=O)[C@@H](NC(=O)CNC(=O)[C@H](CCC(N)=O)NC(=O)C(C)(C)NC(=O)[C@@H](N)Cc1c[nH]cn1)[C@@H](C)O)[C@@H](C)O)C(=O)N[C@@H](CCC(=O)O)C(=O)N[C@@H](Cc1ccccc1)C(=O)N[C@H](C(=O)N[C@@H](CCC(=O)O)C(=O)N[C@@H](Cc1c[nH]c2ccccc12)C(=O)N[C@@H](CC(C)C)C(=O)N[C@@H](CCC(=O)O)C(=O)NCC(=O)NCC(=O)N1CCC[C@H]1C(=O)N[C@@H](CO)C(=O)N[C@@H](CO)C(=O)NCC(N)=O)C(C)C)C(=O)O)C(=O)O [Compound 76] (HELM PEPTIDE1{H.[Aib].Q.G.T.F.T.S.D.Y.S.K.Y.L.E.E.K.R.A.K.E.F.V.E.W.L.E.G.G.P.S.S.G.[am]}|PEPTIDE2{[CCCCCCCCCCCCCCCC(=O)[*:2]].[gGlu].[gGlu]}$PEPTIDE1,PEPTIDE2,20:R3-3:R2$$$V2.0; N-terminus assumed)",0.191 nM,–,–,–,–,–
CC(C)C[C@H](NC(=O)[C@H](Cc1c[nH]c2ccccc12)NC(=O)[C@H](C)NC(=O)[C@@H](NC(=O)[C@H](Cc1ccccc1)NC(=O)[C@H](CCC(=O)O)NC(=O)[C@H](CCCCNC(=O)COCCOCCNC(=O)COCCOCCNC(=O)CC[C@H](NC(=O)CCCCCCCCCCCCCCCCC(=O)O)C(=O)O)NC(=O)[C@H](C)NC(=O)[C@H](CCCNC(=N)N)NC(=O)[C@H](CCCCN)NC(=O)[C@H](CCC(=O)O)NC(=O)[C@H](CCC(=O)O)NC(=O)[C@H](CC(C)C)NC(=O)[C@H](Cc1ccc(O)cc1)NC(=O)[C@H](CCCCN)NC(=O)[C@H](CO)NC(=O)[C@H](Cc1ccc(O)cc1)NC(=O)[C@H](CC(=O)O)NC(=O)[C@H](CO)NC(=O)[C@@H](NC(=O)[C@H](Cc1ccccc1)NC(=O)[C@@H](NC(=O)CNC(=O)[C@H](CCC(N)=O)NC(=O)C(C)(C)NC(=O)[C@@H](N)Cc1c[nH]cn1)[C@@H](C)O)[C@@H](C)O)C(C)C)C(=O)N[C@@H](CCC(=O)O)C(=O)N[C@@H](C)C(=O)NCC(=O)NCC(=O)N1CCC[C@H]1C(=O)N[C@@H](CO)C(=O)N[C@@H](CO)C(=O)NCC(N)=O [Compound 53] (H-H[Aib]QGTFTSDYSKYLEEKRAK([AEEA-AEEA-γGlu-C18 diacid])EFVAWLEAGGPSSG-NH2; N-terminus assumed),0.316 nM,–,–,–,–,–
CC[C@H](C)[C@H](NC(=O)[C@H](Cc1ccccc1)NC(=O)[C@H](CCC(=O)O)NC(=O)[C@H](CCCCN)NC(=O)[C@H](C)NC(=O)[C@H](CCCNC(=N)N)NC(=O)[C@H](CCCCN)NC(=O)[C@H](CCC(=O)O)NC(=O)[C@H](CC(=O)O)NC(=O)[C@H](CC(C)C)NC(=O)[C@H](Cc1ccc(O)cc1)NC(=O)[C@H](CCCCN)NC(=O)[C@H](CO)NC(=O)[C@H](CCCCNC(=O)COCCOCCNC(=O)COCCOCCNC(=O)CC[C@H](NC(=O)CCCCCCCCCCCCCCCCC(=O)O)C(=O)O)NC(=O)[C@H](CC(=O)O)NC(=O)[C@H](CO)NC(=O)[C@@H](NC(=O)[C@H](Cc1ccccc1)NC(=O)[C@@H](NC(=O)CNC(=O)[C@H](CCC(N)=O)NC(=O)C(C)(C)NC(=O)[C@@H](N)Cc1c[nH]cn1)[C@@H](C)O)[C@@H](C)O)C(=O)N[C@@H](CCC(=O)O)C(=O)N[C@@H](Cc1c[nH]c2ccccc12)C(=O)N[C@@H](CC(C)C)C(=O)N[C@@H](CCC(=O)O)C(=O)N[C@@H](C)C(=O)NCC(=O)NCC(=O)N1CCC[C@H]1C(=O)N[C@@H](CO)C(=O)N[C@@H](CO)C(=O)NCC(N)=O [Compound 23] (H-H[Aib]QGTFTSDK([AEEA-AEEA-γGlu-C18 diacid])SKYLDEKRAKEFIEWLEAGGPSSG-NH2; N-terminus assumed),0.329 nM,–,–,–,–,–
"CCCCCCCCCCCCCCCC(=O)N[C@@H](CCC(=O)N[C@@H](CCC(=O)NCCCC[C@H](NC(=O)[C@H](CC(=O)O)NC(=O)[C@H](CO)NC(=O)[C@@H](NC(=O)[C@H](Cc1ccccc1)NC(=O)[C@@H](NC(=O)CNC(=O)[C@H](CCC(N)=O)NC(=O)C(C)(C)NC(=O)[C@@H](N)Cc1c[nH]cn1)[C@@H](C)O)[C@@H](C)O)C(=O)N[C@@H](CO)C(=O)N[C@@H](CCCCN)C(=O)N[C@@H](Cc1ccc(O)cc1)C(=O)N[C@@H](CC(C)C)C(=O)N[C@@H](CCC(=O)O)C(=O)N[C@@H](CO)C(=O)N[C@@H](CCC(=O)O)C(=O)N[C@@H](CCCNC(=N)N)C(=O)N[C@@H](C)C(=O)N[C@@H](CCCCN)C(=O)N[C@@H](CCC(=O)O)C(=O)N[C@@H](Cc1ccccc1)C(=O)N[C@H](C(=O)N[C@@H](CCC(=O)O)C(=O)N[C@@H](Cc1c[nH]c2ccccc12)C(=O)N[C@@H](CC(C)C)C(=O)N[C@H](C(=O)N[C@@H](CCCCN)C(=O)N[C@@H](CCC(=O)O)C(=O)NCC(=O)NCC(=O)N1CCC[C@H]1C(=O)N[C@@H](CO)C(=O)N[C@@H](CO)C(=O)NCC(N)=O)C(C)C)C(C)C)C(=O)O)C(=O)O [Compound 19] (HELM PEPTIDE1{H.[Aib].Q.G.T.F.T.S.D.K.S.K.Y.L.E.S.E.R.A.K.E.F.V.E.W.L.V.K.E.G.G.P.S.S.G.[am]}|PEPTIDE2{[CCCCCCCCCCCCCCCC(=O)[*:2]].[gGlu].[gGlu]}$PEPTIDE1,PEPTIDE2,10:R3-3:R2$$$V2.0; N-terminus assumed)",6.25 nM,–,–,–,–,–
